Results reported in patent US10882860B2, “Treatment of osteoarthritis” (Samumed, LLC, priority 2015, dated 2021).
Like-named read-outs stand apart in the source and are kept apart here.

Experiments:
[1] = Rat pharmacokinetics after IA injection (plasma, knee joint); assay type: in vivo, Sprague Dawley rats; settings: for concentration at 30 day / concentration at 90 day / concentration at 180 day: Sprague Dawley; for concentration at 30 day / concentration at 90 day / concentration at 180 day / Formula (I) concentration, Bone / Formula (I) concentration, Cartilage / Formula (I) concentration, Plasma: rats, single IA; for Formula (I) concentration, Plasma: QL = 5 ng/mL
Experimental: In rats and dogs, the pharmacokinetic profile, safety profile, tissue distribution and cartilage regeneration following a single intra-articular (IA) injection of the compound of Formula (I) in the plasma and the knee joint (cartilage and bone) was determined. The compound of Formula (I) (Form 1) was formulated as a suspension composition in 0.5% CMC/0.05% Polysorbate 80 in PBS.
The pharmacokinetics of the compound of Formula (I) in rats was studied. Three Sprague Dawley rats were each injected with a single intra-articular (IA) injection (one IA injection per knee) of a suspension composition of the compound of Formula (I) (Form 1) at 0.3, 1, 3 and 9 μg/knee. Plasma was collected beginning at 15 minutes post-dose on Day 1 and the knee joint was collected at Days 30, 90, and 180 post-IA administration. The bone and cartilage tissues from the knee joint were segregated and concentrations analyzed. The compound was retained in the knee joint above the target concentration level (˜30 nM, the intended clinical therapeutic dose) for greater than 180 days and was undetectable in the plasma at all time points.

[2] = system: chondrogenic and osteogenic gene expression in human MSCs; test: Chondrogenic and osteogenic gene expression, qRT-PCR in human MSCs; assay type: cell-based; settings: 10 nM and 30 nM, 21 days
Experimental: Human MSCs were plated in 10 cm dishes in chondrogenic induction medium (Lonza; DMEM, dexamethasone, ascorbate, insulin-transferrin-selenium [ITS supplement], gentamycin-amphotericin [GA-1000], sodium pyruvate, proline and L-glutamine) and treated with the compound of Formula (I) in DMSO (10 nM and 30 nM) or TGF-β3 (20 μg/mL) as a positive control. Cells were incubated at 37° C., 5% CO2 for 21 days, with media changes every 5 days. Cells were pelleted and washed, and total RNA was isolated and purified using RNeasy Plus Mini Kit (Qiagen). cDNA was synthesized from 1 μg of total RNA using QuantiTect Reverse Transcription kit (Qiagen). qRT-PCR was performed with QuantiTect SYBR Green PCR Kit (Qiagen) and gene-specific primers, using CFX384 thermal cycler (Biorad). Transcripts were quantitated by comparative Ct method and normalized to endogenous controls, β-actin and GAPDH. Fold changes were normalized to DMSO treated cells.

[3] = system: protease expression (MMP1, MMP3, MMP13); test: Inhibition of protease release (qRT-PCR, TNF-α + Oncostatin M stimulated chondrocytes); assay type: cell-based, human; settings: 72 hours, FIGS. 19A-C
Experimental: Human MSCs were plated in 10 cm dishes in chondrogenic induction medium (Lonza; DMEM, dexamethasone, ascorbate, insulin-transferrin-selenium [ITS supplement], gentamycin-amphotericin [GA-1000], sodium pyruvate, proline and L-glutamine) and treated with TGF-β3 (20 μg/mL) to induce chondrogenic differentiation. Cells from 4 dishes were pooled and re-plated in 24-well plates in Chondrogenic Induction Medium and treated with various concentrations of the compound of Formula (I). 4 hours later, MMP production was stimulated by adding TNF-α (20 μg/mL)+Oncostatin M (10 ng/mL) and cells were incubated at 37° C., 5% CO2 for 72 hours. Cells were then pelleted and washed, and total RNA was isolated and purified using RNeasy Plus Mini Kit (Qiagen). cDNA was synthesized from 1 μg of total RNA using QuantiTect Reverse Transcription kit (Qiagen). qRT-PCR was performed with QuantiTect SYBR Green PCR Kit (Qiagen) and gene-specific primers, using CFX384 thermal cycler (Biorad). Transcripts were quantitated by comparative Ct method, and normalized to endogenous controls, β-actin and GAPDH. Fold changes were normalized to unstimulated cells. […] FIG. 19A depicts MMP1 production. FIG. 19B depicts MMP3 production. FIG. 19C depicts MMP13 production.

For `CC(C)CC(=O)Nc1cncc(-c2ccc3[nH]nc(-c4nc5c(-c6cccc(F)c6)cncc5[nH]4)c3c2)c1` [compound of Formula (I)], the concentration at 30 day ([1]; rat, bone, other: intra-articular injection, 1 μg/knee, Day 30, read-out: Formula (I) concentration, Bone) was 196 ng/g, the concentration at 90 day ([1]; rat, bone, other: intra-articular injection, 1 μg/knee, Day 90, read-out: Formula (I) concentration, Bone) was 44.4 ng/g and the concentration at 180 day ([1]; rat, bone, other: intra-articular injection, 1 μg/knee, Day 180, read-out: Formula (I) concentration, Bone) was 46.4 ng/g. The concentration at 30 day ([1]; rat, bone, other: intra-articular injection, 3 μg/knee, Day 30, read-out: Formula (I) concentration, Bone) was 738 ng/g, the concentration at 90 day ([1]; rat, bone, other: intra-articular injection, 3 μg/knee, Day 90, read-out: Formula (I) concentration, Bone) was 166 ng/g and the concentration at 180 day ([1]; rat, bone, other: intra-articular injection, 3 μg/knee, Day 180, read-out: Formula (I) concentration, Bone) was 15 ng/g. The concentration at 30 day ([1]; rat, bone, other: intra-articular injection, 9 μg/knee, Day 30, read-out: Formula (I) concentration, Bone) was 3290 ng/g, the concentration at 180 day ([1]; rat, bone, other: intra-articular injection, 9 μg/knee, Day 180, read-out: Formula (I) concentration, Bone) was 67 ng/g and the concentration at 30 day ([1]; rat, bone, other: intra-articular, 0.3 μg/knee, Day 30, read-out: Formula (I) concentration, Bone) was 25.8 ng/g. It also gave a concentration at 90 day ([1]; rat, bone, other: intra-articular, 0.3 μg/knee, Day 90, read-out: Formula (I) concentration, Bone) of 6.56 ng/g, a concentration at 180 day ([1]; rat, bone, other: intra-articular, 0.3 μg/knee, Day 180, read-out: Formula (I) concentration, Bone) of 19 ng/g and a concentration at 30 day ([1]; rat, cartilage, other: intra-articular injection, 0.3 μg/knee, Day 30, read-out: Formula (I) concentration, Cartilage) of 263 ng/g. The concentration at 90 day ([1]; rat, cartilage, other: intra-articular injection, 0.3 μg/knee, Day 90, read-out: Formula (I) concentration, Cartilage) was 78 ng/g, the concentration at 180 day ([1]; rat, cartilage, other: intra-articular injection, 0.3 μg/knee, Day 180, read-out: Formula (I) concentration, Cartilage) was 69.6 ng/g and the concentration at 30 day ([1]; rat, cartilage, other: intra-articular injection, 3 μg/knee, Day 30, read-out: Formula (I) concentration, Cartilage) was 2570 ng/g. It also gave a concentration at 90 day ([1]; rat, cartilage, other: intra-articular injection, 3 μg/knee, Day 90, read-out: Formula (I) concentration, Cartilage) of 645 ng/g, a concentration at 180 day ([1]; rat, cartilage, other: intra-articular injection, 3 μg/knee, Day 180, read-out: Formula (I) concentration, Cartilage) of 717 ng/g and a concentration at 30 day ([1]; rat, cartilage, other: intra-articular injection, 9 μg/knee, Day 30, read-out: Formula (I) concentration, Cartilage) of 3560 ng/g. For the same compound, the concentration at 180 day ([1]; rat, cartilage, other: intra-articular injection, 9 μg/knee, Day 180, read-out: Formula (I) concentration, Cartilage) was 224 ng/g, the concentration at 30 day ([1]; rat, cartilage, other: intra-articular, 1 μg/knee, Day 30, read-out: Formula (I) concentration, Cartilage) was 39 ng/g and the concentration at 90 day ([1]; rat, cartilage, other: intra-articular, 1 μg/knee, Day 90, read-out: Formula (I) concentration, Cartilage) was 243 ng/g. For the same compound, the concentration at 180 day ([1]; rat, cartilage, other: intra-articular, 1 μg/knee, Day 180, read-out: Formula (I) concentration, Cartilage) was 201 ng/g, the plasma level ([1]; rat, all time points) was “undetectable” and the “time retained in the knee joint above the target concentration level (˜30 nM)” value ([1]; rat, single IA 0.3, 1, 3 and 9 μg/knee) was “greater than 180 days”. For the same compound, the “Formula (I) concentration, Bone” value ([1]; 0.3 μg/knee, Day 30) was “[51 nM]”, the “Formula (I) concentration, Cartilage” value ([1]; 0.3 μg/knee, Day 30) was “[521 nM]” and the “Formula (I) concentration, Plasma” value ([1]; 0.3 μg/knee, Day 30) was “BQL”. The “Formula (I) concentration, Bone” value ([1]; 0.3 μg/knee, Day 90) was “[13 nM]”, the “Formula (I) concentration, Cartilage” value ([1]; 0.3 μg/knee, Day 90) was “[154 nM]” and the “Formula (I) concentration, Plasma” value ([1]; 0.3 μg/knee, Day 90) was “BQL”. For the same compound, the “Formula (I) concentration, Bone” value ([1]; 0.3 μg/knee, Day 180) was “[38 nM]”, the “Formula (I) concentration, Cartilage” value ([1]; 0.3 μg/knee, Day 180) was “[138 nM]” and the “Formula (I) concentration, Plasma” value ([1]; 0.3 μg/knee, Day 180) was “BQL”. The “Formula (I) concentration, Bone” value ([1]; 1 μg/knee, Day 30) was “[388 nM]”, the “Formula (I) concentration, Cartilage” value ([1]; 1 μg/knee, Day 30) was “[774 nM]” and the “Formula (I) concentration, Plasma” value ([1]; 1 μg/knee, Day 30) was “BQL”. The “Formula (I) concentration, Bone” value ([1]; 1 μg/knee, Day 90) was “[88 nM]”, the “Formula (I) concentration, Cartilage” value ([1]; 1 μg/knee, Day 90) was “[481 nM]” and the “Formula (I) concentration, Plasma” value ([1]; 1 μg/knee, Day 90) was “BQL”. For the same compound, the “Formula (I) concentration, Bone” value ([1]; 1 μg/knee, Day 180) was “[92 nM]”, the “Formula (I) concentration, Cartilage” value ([1]; 1 μg/knee, Day 180) was “[398 nM]” and the “Formula (I) concentration, Plasma” value ([1]; 1 μg/knee, Day 180) was “BQL”. For the same compound, the “Formula (I) concentration, Bone” value ([1]; 3 μg/knee, Day 30) was “[1461 nM]”, the “Formula (I) concentration, Cartilage” value ([1]; 3 μg/knee, Day 30) was “[5097 nM]” and the “Formula (I) concentration, Plasma” value ([1]; 3 μg/knee, Day 30) was “BQL”. For the same compound, the “Formula (I) concentration, Bone” value ([1]; 3 μg/knee, Day 90) was “[329 nM]”, the “Formula (I) concentration, Cartilage” value ([1]; 3 μg/knee, Day 90) was “[1277 nM]” and the “Formula (I) concentration, Plasma” value ([1]; 3 μg/knee, Day 90) was “BQL”. For the same compound, the “Formula (I) concentration, Bone” value ([1]; 3 μg/knee, Day 180) was “[313 nM]”, the “Formula (I) concentration, Cartilage” value ([1]; 3 μg/knee, Day 180) was “[1420 nM]” and the “Formula (I) concentration, Plasma” value ([1]; 3 μg/knee, Day 180) was “BQL”. The “Formula (I) concentration, Bone” value ([1]; 9 μg/knee, Day 30) was “[6520 nM]”, the “Formula (I) concentration, Cartilage” value ([1]; 9 μg/knee, Day 30) was “[7055 nM]” and the “Formula (I) concentration, Plasma” value ([1]; 9 μg/knee, Day 30) was “BQL”. For the same compound, the “Formula (I) concentration, Plasma” value ([1]; 9 μg/knee, Day 90) was “BQL”, the “Formula (I) concentration, Bone” value ([1]; 9 μg/knee, Day 180) was “[1335 nM]” and the “Formula (I) concentration, Cartilage” value ([1]; 9 μg/knee, Day 180) was “[4437 nM]”. The “Formula (I) concentration, Plasma” value ([1]; 9 μg/knee, Day 180) was “BQL”, the chondrogenic gene expression ([2]; FIG. 18A) was “upregulated” and the osteogenic gene expression ([2]; FIG. 18B) was “downregulated”. The “protease expression (MMP1, MMP3, MMP13)” value [3] was “dose-dependent inhibition”.
